Experimental data published in patent US6403554B2, “Polyunsaturated fatty acid derivatives and their use” (Ardenia Investments Ltd., priority 1998, dated 2002).
Entries after “also recorded” stand apart in the source; their conditions may differ.

Tests used:
Type in all cases: in vivo, C57B1/6 mice
[1] = test system: antibody-forming cells (AFC) in the spleen; experiment: Influence of AFP/compound complexes and their components on humoral immune response (AFC in spleen); conditions: for Immunogenic activity: compound alone; for Dose at which immunostimulating effect in vivo is displayed: compound in a complex with AFP
Description: 0.15 ml of AFP/Compound 3 complex was administered intravenously to 6 mice males of C57B1/6 line (weight 18-22 g) in the dose of […] of AFP and 45.5 μg of compound 3 per capita. Simultaneously suspension of 5·10^7 sheep erythrocytes was injected intraperitoneally (0.2 ml per capita). In the group with compound 3 mice were injected intravenously by one in the dose of 45.5 μg. Animals of group with AFP received 9 μg of AFP. Mice of control group were injected intravenously with equal volume of saline. Complex AFP/Compound 3 effect on humoral immune response was analyzed by counting the quantity of AFC in the spleen according to Cunningham (per 10^6 spleen cells and per spleen).
0.15 ml of AFP/Compound 2a complex (1:100) was administered intravenously to 6 mice males of C57B1/6 line (weight 18-22 g) in the dose of 9 μg of AFP and 45.5 μg of compound 2a per capita. Simultaneously, a suspension of 5·10^7 sheep erythrocytes was injected intraperitoneally (0.2 ml per capita). In the group with compound 2a mice were injected intravenously by one in the dose of 45.5 μg. Animals of group with AFP received 9 μg of AFP. Mice in the control group were injected intravenously with an equal volume of saline. The effect of the AFP/Compound 2a complex on humoral immune response was analyzed by counting the quantity of AFC in the spleen according to Cunningham (per 10^6 spleen cells and per spleen).
(§1) 0.15 ml of AFP/Compound 10 complex (1:200) was administered intravenously to 6 male mice of C57B1/6 line (weight 18-22 g) in the dose of 9 μg of AFP and 91 μg of compound 10 per capita. Simultaneously, a suspension of 5·10^7 sheep erythrocytes was injected intraperitoneally (0.2 ml per capita). In the group receiving compound 10 mice were injected intravenously by one in the dose of 91 μg. Animals in the group with AFP received 9 μg of AFP. Micein the control group were injected intravenously with an equal volume of saline. The effect of the AFP/Compound 10 complex on humoral immune response was analyzed by counting the quantity of AFC in the spleen according to Cunningham (per 10^6 spleen cells and per spleen).
as §1, with “AFP/Compound 14” for “AFP/Compound 10”, “compound 14” for “compound 10”, “group with” for “group receiving”, “Animals of” for “Animals in the”, “AFP. Mice in” for “AFP. Micein”
0.15 ml of AFP/Compound 7 complex (1:200) was administered intravenously to 6 male mice of C57B1/6 line (weight 18-22 g) in the dose of 9 μg of AFP and 91 μg of compound 7 per capita. Simultaneously, a suspension of 5·10^7 sheep erythrocytes was injected intraperitoneally (0.2 ml per capita). In the group with compound 7 mice were injected intravenously by one in the dose of 91 μg. Animals of group with AFP received 9 μg of AFP. Mice of control group were injected intravenously with equal volume of saline. AFP/Compound 7 complex effect on humoral immune response was analyzed by counting the quantity of AFC in the spleen according to Cunningham (per 10^6 spleen cells and per spleen).
0.15 ml of AFP/Compound 15 complex (1:200) was administered intravenously to 6 mice males of C57B1/6 line (weight 18-22 g) in the dose of 9 μg of AFP and 91 μg of compound 15 per capita. Simultaneously, a suspension of 5·10^7 sheep erythrocytes was injected intraperitoneally (0.2 ml per capita). In the group receiving compound 15, the mice were injected intravenously by one in the dose of 91 μg. Animals in the AFP-group received 9 μg of AFP. […]

[2] = test system: antibody-forming cells (AFC) in the spleen; experiment: Humoral immune response: counting antibody-forming cells (AFC) in the spleen according to Cunningham, mice immunised with sheep erythrocytes; conditions: for Amount of antibody-forming cells per 10^6 spleen cells, M ± SEM (relative amount of AFC) / Amount of antibody-forming cells per spleen, M ± SEM (total AFC amount): 5-th day after injection, female mice; for Effect, % on AFC per 10^6 spleen cells / Effect, % on AFC per spleen: versus animals immunised only with sheep erythrocytes; for immunostimulating action: dose of 136.5 μg/mouse; for Immunogenic activity: doses of 45.5 and 91 μg/mouse
Description: (§2) 0.15 ml of compound 10 was administered intravenously to 6 mice females of CS7B1/6 line (weight 18-22 g) in doses of 45.5, 91 and 136.5 μg of compound 10 per capita for each testing group according to the dose. Simultaneously, a suspension of 5·10^7 sheep erythrocytes was injected intraperitoneally (0.2 ml per capita). Mice in the control group were injected intravenously with equal volume of saline. The effects of compound 10 on humoral immune response were analyzed both by counting the quantity of AFC in the spleen according to Cunningham (per 10^6 spleen cells and per spleen) and estimating the titers of hemagglutining antibodies in serum of the animals (Cunningham A. J., Nature, 1965, Vol.207, No 5001. P.1106-1107), while the titers of hemagglutinating antibodies were evaluated according to litterature (Evans J. et al., Cell, 1974; Vol 3., p.153-158, Feizi T., Menger E., Transfusion, 1970, Vol. 10, p.33-35,).
(§3) 0.15 ml of compound 11 was administered intravenously to 6 female mice of the C57B1/6 line (weight 18-22 g) in doses of 45.5, 91 and 136.5 μg of compound 11 per capita for each testing group according to the dose. Simultaneously, a suspension of 5·10^7 sheep erytrocytes was injected intraperitoneally (0.2 ml per capita). Mice in the control group were injected intravenously with an equal volume of saline. The effects of compound 11 on humoral immune response was analysed both by counting the quantity of AFC in the spleen according to Cunningham (per 10^6 spleen cells and per spleen) and estimating the titers of hemagglutining antibodies in serum of the animals.
as §3, with “12” for “11”, “erythrocytes” for “erytrocytes”, “analyzed” for “analysed”
as §3, with “compound 8” for “compound 11”, “sheep erythrocytes” for “sheep erytrocytes”, “Mice of” for “Mice in”, “response were analyzed” for “response was analysed”
as §3, with “compound 3” for “compound 11”, “Mice of” for “Mice in”, “with” for “with an”, “response were” for “response was”
(§4) 0.15 ml of compound 4 was administered intravenously to 6 female mice of the C57B1/6 line (weight 18-22 g) in a doses of 45.5, 91 and 136.5 μg of compound 4 per capita for each testing group according to the dose. Simultaneously, a suspension of 5·10^7 sheep erythrocytes was injected intraperitoneally (0.2 ml per capita). […]

[3] = test system: hemagglutinating antibodies in serum; experiment: Humoral immune response: titers of hemagglutinating antibodies in serum; conditions: for Effect, % on hemagglutinins: versus control; for Amount of hemagglutinins: serum, female mice
Description: as §2, §3
as §3, with “12” for “11”, “erythrocytes” for “erytrocytes”, “analyzed” for “analysed”
as §3, with “compound 8” for “compound 11”, “sheep erythrocytes” for “sheep erytrocytes”, “Mice of” for “Mice in”, “response were analyzed” for “response was analysed”
as §3, with “compound 3” for “compound 11”, “Mice of” for “Mice in”, “with” for “with an”, “response were” for “response was”
as §4

Compound	Immunogenic activity ([1]; 45.5 μg/mouse)	Dose at which immunostimulating effect in vivo is displayed [1] [μg/mouse]	Immunogenic activity ([1]; 91 μg/mouse)	Amount of antibody-forming cells per 10^6 spleen cells, M ± SEM (relative amount of AFC) ([2]; 45.5 μg/mouse i.v.)	Amount of antibody-forming cells per spleen, M ± SEM (total AFC amount) ([2]; 45.5 μg/mouse i.v.)	Effect, % on AFC per 10^6 spleen cells ([2]; 45.5 μg/mouse i.v.) [p > 0.05%]	Effect, % on AFC per spleen ([2]; 45.5 μg/mouse i.v.) [p > 0.05%]	Amount of antibody-forming cells per 10^6 spleen cells, M ± SEM (relative amount of AFC) ([2]; 91 μg/mouse i.v.)	Amount of antibody-forming cells per spleen, M ± SEM (total AFC amount) ([2]; 91 μg/mouse i.v.)	Effect, % on AFC per 10^6 spleen cells ([2]; 91 μg/mouse i.v.)	Effect, % on AFC per spleen ([2]; 91 μg/mouse i.v.)	Amount of antibody-forming cells per 10^6 spleen cells, M ± SEM (relative amount of AFC) ([2]; 136.5 μg/mouse i.v.)	Amount of antibody-forming cells per spleen, M ± SEM (total AFC amount) ([2]; 136.5 μg/mouse i.v.)	immunostimulating action [2]	Immunogenic activity [2]	Effect, % on hemagglutinins ([3]; 91 μg/mouse i.v.)	Effect, % on hemagglutinins ([3]; 136.5 μg/mouse i.v.)	Amount of hemagglutinins ([3]; 45.5 μg/mouse i.v.) [Log2 T]	Amount of hemagglutinins ([3]; 91 μg/mouse i.v.) [Log2 T]	Amount of hemagglutinins ([3]; 136.5 μg/mouse i.v.) [Log2 T]
CC1=C(/C=C/C(C)=C/C=C/C(C)=C/C(=O)NCCOP(=O)(O)O)C(C)(C)CCC1 [Compound 1, N-(all-trans-retinoyl)-o-phospho-2-aminoethanol]	no immunogenic activity; also recorded: do not inhibit immunogenic activity	45.5	–	–	–	–	–	–	–	–	–	–	–	–	–	–	–	–	–	–
CCCCC/C=C\C/C=C\C/C=C\C/C=C\CCCC(=O)N[C@H](C(=O)O)[C@@H](C)OP(=O)(O)O [Compound 7, N-arachidonoyl-o-phospho-L-threonine]	–	91	no immunogenic activity; also recorded: do not inhibit immunogenic activity	–	–	–	–	–	–	–	–	–	–	–	–	–	–	–	–	–
CC/C=C\C/C=C\C/C=C\C/C=C\C/C=C\CCCC(=O)N[C@H](C(=O)O)[C@@H](C)OP(=O)(O)O [Compound 15, N-eicosapentaenoyl-o-phospho-L-threonine]	–	91	no immunogenic activity; also recorded: do not inhibit immunogenic activity	–	–	–	–	–	–	–	–	–	–	–	–	–	–	–	–	–
CC/C=C\C/C=C\C/C=C\CCCCCCCC(=O)NCCOP(=O)(O)O [Compound 17, N-linolenoyl-o-phospho-2-aminoethanol]	–	–	–	457.3±40.7	51.1±4.4 × 10^3	−3.0	−7.4	523.8±45.3	63.5±5.1 × 10^3	+11.1 p > 0.05%	+15.0 p > 0.05%	619.6±38.9	71.6±4.7 × 10^3	marked immunostimulating action	no immunogenic activity	+2.6 p > 0.05%	+2.6 p > 0.05%	–	–	–
CC/C=C\C/C=C\C/C=C\CCCCCCCC(=O)N[C@@H](Cc1ccc(OP(=O)(O)O)cc1)C(=O)O [Compound 20, N-linolenoyl-o-phospho-L-tyrosine]	–	–	–	512.8±46.2	46.4±4.8 × 10^3	−9.8	−7.4	634.5±51.7	55.7±5.6 × 10^3	+11.6 p > 0.05%	+11.2 p > 0.05%	845.1±43.1	75.8±7.7 × 10^3	marked immunostimulating action	no immunogenic activity	+1.4 p > 0.05%	+2.7 p > 0.05%	7.4 ± 0.2	7.5 ± 0.3	7.6 ± 0.4
